Measurements as given in US20150157645A1, “COMBINATION OF A 17-ALPHA-HYDROXYLASE (C17,20-LYASE) INHIBITOR AND A SPECIFIC PI-3K INHIBITOR FOR TREATING A TUMOR DISEASE” (priority 2012, published 2015).
Marks after values point to notes of the source that are not given here.

Experiments:
[1] = test system: human prostate LNCap xenograft; assay: human prostate LnCap xenograft model in SCID mice (study MIS-43P-12); assay type: in vivo; parameters: Average / Delta avg: unit not given here; conditions: D 300 mg/kg bid, C 30 mg/kg qd; for anti-tumor response (in words): LnCap, single agent, AA 100 mg/kg bid; for T/C [%] / Delta avg / Average: po, C/D 30/300 qd/bid; for Delta avg: change of average tumor volume
Procedure: (§1) Recently, in vivo anti-tumor efficacy of 1-(2-Chloro-pyridin-4-yl)-3-(4-methyl-pyridin-3-yl)-imidazolidin-2-one was evaluated alone and in combination with COMPOUND C or its hydrochloride salt (a pan PI3K inhibitor) in two human prostate cancer xenograft models, VCap and LnCap, established in SCID mice. The VCap tumors which, express PTEN and over-express wild type AR, were established in chemically-castrated mice. The LnCap tumors which, express mutant AR (T877A) and are PTEN null, were initially established in non-castrated animals which were chemically-castrated at the time of treatment.

[2] = test system: human prostate VCap xenograft; assay: human prostate VCap xenograft model in SCID mice (studies MIS-32S-12 and MIS-59FVA-12); conditions: for ΔTumor volume (mm^3): mean ± SEM
Procedure: as §1

[3] = MIS-43P-12, day 0 of treatment, E 100 mg/kg bid
[4] = MIS-43P-12, day 4 of treatment, E 100 mg/kg bid
[5] = MIS-43P-12, day 11 of treatment
[6] = MIS-43P-12, day 14 of treatment, E 100 mg/kg bid
[7] = MIS-43P-12, day 18 of treatment, E 100 mg/kg bid
[8] = MIS-43P-12, day 0, E 100 mg/kg bid
[9] = MIS-43P-12, day 4, E 100 mg/kg bid
[10] = MIS-43P-12, day 14, E 100 mg/kg bid
[11] = MIS-43P-12, day 18, E 100 mg/kg bid
[12] = tumor volume (FIG. 3a), MIS-43P-12, day 0 of treatment, E 100 mg/kg bid
[13] = tumor volume, MIS-43P-12, day 4 of treatment, E 100 mg/kg bid
[14] = tumor volume, MIS-43P-12, day 7 of treatment
[15] = tumor volume, MIS-43P-12, day 11 of treatment
[16] = tumor volume, MIS-43P-12, day 14 of treatment, E 100 mg/kg bid
[17] = tumor volume, MIS-43P-12, day 18 of treatment, E 100 mg/kg bid
[18] = MIS-32S-12, Day 14, p.o., D 300 mg/kg bid, AA 100 mg/kg bid, C 30 mg/kg qd, C + D 30 qd + 300 bid
[19] = MIS-32S-12, Day 35, p.o., D 300 mg/kg bid, AA 100 mg/kg bid, C 30 mg/kg qd, C + D 30 qd + 300 bid
[20] = MIS-32S-12, Day 35, p.o., D 300 mg/kg bid, AA 100 mg/kg bid, C 30 mg/kg qd, C + D 30 mg/kg qd + 300 mg/kg bid
[21] = MIS-59FVA-12, Day 14, p.o., D 300 mg/kg bid, C 30 mg/kg qd, C + D 30 qd + 300 bid (so in the source)
[22] = MIS-59FVA-12, Day 14, p.o., D 300 mg/kg bid, C 30 mg/kg qd (so in the source)
[23] = MIS-59FVA-12, Day 23, p.o., D 300 mg/kg bid, C 30 mg/kg qd, C + D 30 qd + 300 bid (so in the source)
[24] = MIS-59FVA-12, Day 23, p.o., D 300 mg/kg bid, C 30 mg/kg qd (so in the source)

Nc1cc(C(F)(F)F)c(-c2cc(N3CCOCC3)nc(N3CCOCC3)n2)cn1 [Compound C, 5-(2,6-di-morpholin-4-yl-pyrimidin-4-yl)-4-trifluoromethyl-pyridin-2-ylamine]
anti-tumor response (in words) [1]: marginal tumor growth delay
T/C [%] [1, 3]: 100%
T/C [%] [1, 4]: 56%
T/C [%] ([1]; MIS-43P-12, day 7 of treatment): 71%
T/C [%] [1, 5]: 86%
T/C [%] [1, 6]: 75%
T/C [%] [1, 7]: 79%
Delta avg [1, 8]: 0
Delta avg [1, 9]: 29
Delta avg ([1]; MIS-43P-12, day 7): 88
Delta avg ([1]; MIS-43P-12, day 11): 198
Delta avg [1, 10]: 261
Delta avg [1, 11]: 375
Average [1, 12]: 170
Average [1, 13]: 199
Average [1, 14]: 258
Average [1, 15]: 369
Average [1, 16]: 432
Average [1, 17]: 546
ΔTumor volume (mm^3) [2, 18]: −18.9 ± 6.3 mm^3
Regression (printed in T/C column) ([2]; MIS-32S-12, Day 14, p.o., C 30 mg/kg qd, C + D 30 mg/kg qd + 300 mg/kg bid): 13.8%*
Survival (alive/total) [2, 18]: 7/7
ΔTumor volume (mm^3) [2, 19]: 23.3 ± 21.6 mm^3
T/C [%] [2, 20]: 5.0*^;$ %
Survival (alive/total) [2, 19]: 7/7
ΔTumor volume (mm^3) [2, 21]: 3.6 ± 7.6 mm^3
T/C [%] [2, 22]: 4.0%*
Survival (alive/total) [2, 21]: 7/7
ΔTumor volume (mm^3) [2, 23]: 25.6 ± 16.4 mm^3
T/C [%] [2, 24]: 12.4* %
Survival (alive/total) [2, 23]: 7/7
anti-tumor response (in words) ([2]; VCap, single agent 20 mg/kg qd): tumor growth delay
anti-tumor response (in words) ([2]; VCap, single agent 30 mg/kg qd): tumor regression

Cc1ccncc1N1CCN(c2ccnc(Cl)c2)C1=O [Compound D, 1-(2-Chloro-pyridin-4-yl)-3-(4-methyl-pyridin-3-yl)-imidazolidin-2-one]
anti-tumor response (in words) [1]: marginal tumor growth delay
T/C [%] [1, 3]: 100%
T/C [%] [1, 4]: 82%
T/C [%] ([1]; MIS-43P-12, day 7 of treatment): 60%
T/C [%] [1, 5]: 85%
T/C [%] [1, 6]: 57%
T/C [%] [1, 7]: 67%
Delta avg [1, 8]: 0
Delta avg [1, 9]: 43
Delta avg ([1]; MIS-43P-12, day 7): 73
Delta avg ([1]; MIS-43P-12, day 11): 197
Delta avg [1, 10]: 200
Delta avg [1, 11]: 317
Average [1, 12]: 174
Average [1, 13]: 217
Average [1, 14]: 248
Average [1, 15]: 372
Average [1, 16]: 375
Average [1, 17]: 491
ΔTumor volume (mm^3) [2, 18]: 35.6 ± 10.5 mm^3
T/C [%] ([2]; MIS-32S-12, Day 14, p.o., D 300 mg/kg bid, AA 100 mg/kg bid, C 30 mg/kg qd, C + D 30 mg/kg qd + 300 mg/kg bid): 27.2*^$ %
ΔTumor volume (mm^3) [2, 19]: 303.9 ± 57.3 mm^3
T/C [%] [2, 20]: 65.2*^;$;# %
ΔTumor volume (mm^3) [2, 21]: 36.3 ± 17.0 mm^3
T/C [%] [2, 22]: 40.3* %
ΔTumor volume (mm^3) [2, 23]: 79.8 ± 20.1 mm^3
T/C [%] [2, 24]: 38.7*^;# %
anti-tumor response (in words) ([2]; two separate VCap experiments, single agent, D 300 mg/kg bid, AA 100 mg/kg bid): either slight tumor regression or tumor stasis initially, followed by tumor growth delay
